This note sets out measurements from US12611442B2, “mRNA encoding engineered CFTR” (Translate Bio, Inc., priority 2019, dated 2026).

Common to all, as to assay type: cell-based
Series [1] concerns FRT cells. The experiment in a line: Ussing chamber assay: short-circuit current (chloride ion transport) of cells transfected with WT or engineered CFTR mRNA; sequential forskolin, VX-770, CFTRinh-172. The method, then:
Chloride ion transport was measured by an Ussing chamber. This assay provides an indication of chloride flux based on the principle that the epithelium pumps ions from one side to another and ions leak back through tight junctions situated between epithelial cells. The voltage difference between two sides of the epithelium is measured using two voltage electrodes placed near the tissue/epithelium. The voltage is cancelled out by injecting current, using two other electrodes placed away from the epithelium. The short circuit current is measured as net chloride ion transport.
Traces show short-circuit current measurements during sequential additions of forskolin, an activator of CFTR-mediated chloride secretion, and VX-770 (ivacaftor), a potentiator compound that directly increases phosphorylation-dependent CFTR channel opening on amphotericin B-permeabilized membranes. CFTR proteins A-D responded to forskolin activation resulting in increased chloride ion conductance. Forskolin activation was not observed for CFTR Protein E, the ATP hydrolysis deficient E1371Q mutant. Further addition of VX-770 increased conductance in CFTR Proteins B-D.
In this example, activation of various engineered CFTR protein mutants (proteins B-E, discussed above) were compared with the activation of wild type CFTR (protein A) using the Ussing assay as described in Example 3. In this example the engineered CFTR protein activity was tested at a low concentration of 0.35 μg (FIG. 4).
In this example, activities of various engineered phosphomimetic CFTR protein mutants (Table. 9) were compared with the activity of wild-type CFTR using the Ussing chamber assay as described in Example 3.

Another series has as its system HEK293 cells. Kind of series: CFTR protein expression by protein gel / Western blot (C band). Conditions: for C-band expression (quantification of Western blot): FIG. 11A, 11B; for expression in the C band (mature complex glycosylated CFTR): HEK293 lysates, FIG. 18A-18C. As for the experimental part:
The CFTR band is depicted by an arrow (FIG. 3A).
To examine the expression of CFTR mutants, expression of the wild-type CFTR, 15E, 13E, and E1371Q mutants was quantified as shown in FIG. 11A and FIG. 11B.
Studies were also performed to assess in vitro translation and tolerability of CFTR mutants. […] The “C band” refers to mature complex glycosylated form of CFTR.

Series [2] relates to FRT cells. Kind of series: Time-course Ussing chamber assay (duration of activity, 22 and 44 hours). To be noted: at 44 hours (measured at 22 and 44 hours); FIG. 14A, 14B. As for the experimental part: In this example, duration of activity of various phosphomimetic CFTR mutants were tested in combination with the K14R mutation using a time-course Ussing chamber assay as described in Example 3.
Activity of various CFTR proteins listed in Table 12 were measured at 22 and 44 hours. Short-circuit current (Isc), the movement of ions as measured in the Ussing chamber from active transport, was plotted for each CFTR protein at 22 and 44 hours.

Setting [3] is: HEK293 cells, versus wild-type CFTR.
Setting [4] is: 0.35 μg (low concentration), FRT cells, FIG. 4.

Turning to “13E: S422E, S660E, S670E, S686E, T690E, S700E, S712E, S753E, T787E, T788E, T790E, S795E, S813E (codon optimized: SEQ ID NO: 52)”, in the series with FRT cells [1] (13 or 15 R-domain substitutions, FRT cells, FIG. 9A, 9B, 11E), the “CFTR activity, glutamate (E) versus aspartate (D) substitutions” value is listed as “greater CFTR activity”. The “effect of additional K14R substitution on chloride conductance of the named protein” value with FRT cells [1] (FIG. 14C) is “no effect”. In the series on FRT cells [1] (maximum activated current, FRT cells, FIG. 11C, 11D), the “change in activity when K14R mutation is combined with the named phosphomimetic mutant” value was “no significant increase in the activity”. Moreover, the “C-band expression (quantification of Western blot)” value in the series with HEK293 cells (setting [3]) is reported as “increased C-band expression”. Further, the “increase in protein (C-band, quantification of Western blot)” value with HEK293 cells (HEK293 cells, versus wild-type CFTR, FIG. 11B) was “greater than 2 fold”. In addition, the “expression in the C band (mature complex glycosylated CFTR)” value in the series on HEK293 cells is “increased expression in the C band”. The “remaining activity (short-circuit current, Isc)” value (“remaining activity” below) in the series on FRT cells [2] was “highest remaining activity at 44 hours”.
For “15E/K14R: K14R plus the 15E substitutions (codon optimized: SEQ ID NO: 51)”, the “remaining activity” value in the series on FRT cells [2] is listed as “highest remaining activity at 44 hours”.
In the case of “E1371Q/K14R: E1371Q plus K14R (codon optimized: SEQ ID NO: 49)”, in the series on FRT cells [1] (FRT cells, FIG. 13A, 13B), the “activity compared to wild-type CFTR and to E1371Q-only CFTR” value is listed as “increased activity”. Moreover, in the series with HEK293 cells (FIG. 13B), the “expression compared to wild-type CFTR and to E1371Q-only CFTR” value is “increased expression”. Moreover, in the series with HEK293 cells, the “expression in the C band (mature complex glycosylated CFTR)” value is given as “increased expression in the C band”. The “remaining activity” value in the series on FRT cells [2] is on record as “high remaining activity at 44 hours”.

B1: CFTR Protein E: E1371Q, ATP hydrolysis deficient (SEQ ID NO: 44, 48) (nucleic acid)
DNA: GTGCAGCCCCTGCTGCTCGGCAGAATCATCGCCTCATACGATCCAGACAACAAGGAAGAAAGAAGCATCGCCATCTACCTGGGCATTGGCCTCTGCCTCCTGTTTATTGTGCGGACTCTGCTGCTGCACCCAGCAATTTTCGGGTTGCATCATATTGGCATGCAGATGCGCATTGCTATGTTTTCCCTCATCTACAAAAAGACACTGAAACTCAGCTCCCGGGTGCTGGACAAGATCTCCATCGGCCAACTGGTGTCTCTCCTGAGCAATAACTTGAATAAGTTCGACGAAGGGCTGGCCCTGGCACACTTCGTGTGGATTGCCCCCCTGCAGGTGGCCCTGCTGATGGGACTGATTTGGGAACTGCTGCAGGCTAGCGCTTTCTGCGGCCTGGGGTTCCTGATCGTGCTGGCACTGTTTCAGGCAGGCCTGGGCCGTATGATGATGAAGTACAGAGACCAGAGGGCCGGGAAGATCTCCGAACGGCTCGTTATTACCTCTGAGATGATCGAGAACATTCAGTCTGTGAAAGCCTACTGCTGGGAGGAGGCTATGGAGAAGATGATCGAGAATCTGAGACAGACCGAGCTGAAGCTGACCAGAAAGGCCGCCTACGTGAGGTACTTCAACAGCAGTGCCTTCTTCTTCTCTGGCTTCTTCGTTGTGTTTCTGAGCGTGCTGCCATACGCTCTCATCAAAGGCATCATCCTGCGGAAGATCTTCACCACCATCAGCTTTTGCATCGTGCTTAGAATGGCCGTGACCCGGCAGTTCCCATGGGCCGTGCAAACTTGGTATGATTCCCTGGGCGCCATCAACAAAATCCAGGATTTCCTGCAGAAGCAGGAATACAAGACACTCGAATATAATCTCACAACTACTGAGGTGGTTATGGAGAACGTGACTGCCTTCTGGGAGGAGGGGTTCGGAGAGCTTTTTGAGAAGGCAAAACAGAATAACAACAACCGCAAAACCAGCAACGGCGACGACAGCCTGTTCTTCTCCAATTTTTCTCTCCTGGGAACACCCGTCCTCAAAGACATCAACTTTAAGATCGAGAGGGGACAGCTGCTCGCAGTCGCCGGATCCACAGGCGCCGGCAAGACCTCTCTGCTGATGGTTATCATGGGCGAACTGGAGCCATCCGAGGGCAAGATTAAGCACAGTGGAAGAATCTCCTTTTGTAGCCAGTTCAGTTGGATTATGCCCGGCACTATTAAGGAGAATATCATTTTTGGGGTGAGCTATGATGAGTATCGGTATCGGAGCGTTATCAAAGCCTGTCAGCTGGAGGAGGATATCAGCAAATTCGCAGAGAAGGATAATATCGTGCTGGGGGAGGGGGGAATCACCCTGAGCGGAGGCCAGAGAGCCAGAATCTCACTGGCCCGGGCCGTCTACAAGGACGCCGACCTTTACCTTCTGGACAGTCCCTTTGGATATCTGGATGTGCTGACTGAAAAGGAGATCTTCGAGTCTTGTGTGTGCAAG
Consider B1, for which the forskolin activation entry with FRT cells [1] (0.35 μg (low concentration), FIG. 4) was “forskolin activation at a lower dose in comparison to other constructs tested”. Moreover, in the series with FRT cells [1] (setting [4]), the “conductance prior to forskolin addition” value is “significant pre-forskolin conductance” and the “overall activity compared to wild-type CFTR” value is on record as “overall increased activity”. Also, the “response to forskolin activation (chloride ion conductance, short-circuit current)” value in the series on FRT cells [1] (0.5 μg CFTR (high concentration), amphotericin B-permeabilized membranes, FIG. 3B) is “not observed”. Besides, the “forskolin activation and increased activity by addition of VX-770” value in the series with FRT cells [1] (FIG. 12A, 12B) was “minimal response to VX-770”. Further, in the series with FRT cells [1] (FRT cells, FIG. 12A, 12B), the “activity / conductance (short circuit current) compared to wild-type CFTR” value is given as “overall higher conductance than the wild-type CFTR”. The “activity pattern across doses” value in the series with FRT cells [1] (doses 0.05-0.35 μg/well, FIG. 5) was “consistent activity pattern across treatments”. Besides, in the series with FRT cells [1] (short-circuit conductivity, FIG. 15C), the “effect of K1218R mutation on activity of the named CFTR protein” value is “decreases activity”. The “C-band expression (quantification of Western blot)” value in the series with HEK293 cells (setting [3]) is “increased C-band expression”.
